According to PMC9289467, “A Novel Multifunctional 5,6-Dimethoxy-Indanone-Chalcone-Carbamate Hybrids Alleviates Cognitive Decline in Alzheimer’s Disease by Dual Inhibition of Acetylcholinesterase and Inflammation” (Frontiers in Aging Neuroscience, 2022):

Experiments:
CD11c within microglia = assay: CD11c and Iba1 co-immunostaining (DAM marker); format: in vivo; conditions: AP5-treated vs APP/PS1 mice
Method: (§1) APP/PS1 mice of ages 6 months were randomly divided into vehicle (APP/PS1, n = 10) and treatment groups (AP5, n = 10), which were intragastrically administered with AP5 (40 mg/kg) once daily for consecutive 5 months. AP5 was dissolved in distilled water containing 1% sodium carboxymethyl cellulose.
(§2) The fixed hemibrains were paraffin-embedded and sectioned in the coronal plane. The slices were deparaffinized with xylene and rehydrated by a series of gradient alcohols. Antigen retrieval through microwave boiling was performed with 10 mM sodium citrate solution at pH 6.0. The slices were cooled down to room temperature and then rinsed in PBS solution. Then the slices were incubated in 10% goat serum blocking solution for 1 h followed by primary antibodies overnight at 4°C. The next day, the slides were labeled with biotinylated or fluorescent secondary antibodies. Slices were washed three times with PBS before being mounted. Images were captured using a SpinSR10 scanner (Olympus, Tokyo, Japan). […]
(§3) Cambridge, UK) or anti-GFAP (1:100, bs-0199R, Bioss) at4 °C. After being washed with PBS, slides were treated with a biotinylated secondary antibody for 30 min and with streptavidin-peroxidase complex for another 30 min at 37°C. Immunostaining was visualized with 3,3′-diaminobenzidine (DAB, ZL1-9018, Zhongshan Jinqiao, Beijing, China ).The images were acquired using a Nikon microscope (Nikon, […]

Aβ = assay: MOAB-2 immunofluorescence of Aβ, APP/PS1 mice; format: in vivo; conditions: cortex and hippocampus; AP5 40 mg/kg once daily 5 months
Method: as §1, §2, §3

ACh = assay: Brain ACh level, Amplex Red kit, APP/PS1 mice; format: in vivo, mouse; conditions: AP5 40 mg/kg intragastric once daily 5 months, vs APP/PS1 mice
Method: as §1
The brain samples were weighed, homogenized in PBS solution, and centrifuged for 20 min at 25,000 g at 4°C. Amplex® Red acetylcholinesterase/acetylcholine assay kit (A12217, Thermo Fisher Scientific) was used to detect AChE activity and ACh levels in the supernatant in accordance with the manufacturer’s instructions.
Briefly, for ACh assay, the reactions were started by adding 100 µL of the Amplex Red reagent, HRP, choline oxidase, AChE working solution to each microplate well containing the controls and samples. For AChE assay, detection cocktail solution containing ACh, Amplex Red, choline oxidase and horseradish peroxidase was added toeach well. Assay plates were incubated at room temperature for 30 min and protected from light, followed by detecting fluorescence of resorufin (λex = 544 nm, λem = 590 nm) in a fluorescence microplate reader.
(§4) After deparaffinization and antigen retrieval, the sections were incubated with 0.3% hydrogen peroxide (H2O2) to inhibit endogenous peroxidase activity for 20 min and blocked by goat serum for 30 min at37°C. […]

Iba1+ microglia = assay: Iba1 immunohistochemistry, microglia morphology, APP/PS1 mice; format: in vivo; conditions: AP5 40 mg/kg once daily 5 months
Method: as §1, §2
as §4, with “at37°C. Slides were subsequently incubated overnight with specific primary antibodies: anti-Iba1(1:100, ab178847, Abcam, Cambridge, UK) or anti-GFAP (1:100, bs-0199R, Bioss) at4 °C.” for “at37°C.”

CCN(C)C(=O)Oc1cccc(/C=C2\Cc3cc(OC)c(OC)cc3C2=O)c1 [AP5, (E)-3-((5,6-dimethoxy-1-oxo-1,3-dihydro-2H-inden-2-ylidene)-methyl)phenylethyl(methyl)carbamate]
CD11c-positive area within the activated microglia (CD11c within microglia): significantly elevated | area occupied by unaggregated and aggregated Aβ (MOAB-2) (Aβ): also decreased | ACh levels in cortex and hippocampus (ACh): elevated levels of ACh | proportion of activated microglia phenotype (Iba1+ microglia): marked decrease
